This note sets out measurements from US20230331707A1, “PROGRAMMED CELL NECROSIS INHIBITOR, PREPARATION METHOD THEREFOR, AND USE THEREOF” (Shanghai Institute of Organic Chemistry, Chinese Academy of …, priority 2020, published 2023).

Structures are written as SMILES. Read-outs that look alike come from different tables or passages of the source.

Assay [1] deals with RIPK1^K612R/K612R mutant mice. Put plainly: Digestive system inflammation in RIPK1 K612R/K612R mutant mice. It counts as in vivo. The settings on record: gavage 25 mg/kg, control Nec-1s 50 mg/kg. The text has this:
The adopted biological test scheme was: RIPK1^K612R/K612R mutant mice were used as model mice to test the effect of representative compound QY-10-40 or QY-13-19 on spontaneous intestinal inflammation.
K612R mutation leads to decreased in intracellular RIPK1 level but abnormal activation, making it sensitive to programmed necrosis and caspase-1 activation, and responding to TLRs signaling. RIPK1^K612R/K612R mice will appear responses such as age-dependent reduced RIPK1 expression and abnormal activation, spontaneous intestinal inflammation and splenomegaly.
Methods: The compounds to be tested were dissolved in 0.5% carboxymethyl cellulose according to the required concentration one day in advance, and sonicated overnight. Mice were gavaged in a volume of 0.1 ml/10 g body weight. Body weight was measured three times a week, and samples were collected at the end of the experiment. The effect of the compounds was calculated using Prism Graphpad statistical software.

In assay [2] the test system is FADD−/− Jurkat cells. Briefly: Inhibition of TNF-induced programmed necrosis of FADD deficient Jurkat cells (Cell Titer-Glo viability). The class given is cell-based. The settings on record: for EC50: Homo sapiens, Jurkat, FADD−/− Jurkat cells. A digest of the protocol:
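FADD-deficient human Jurkat T leukemia cells in log phase were adjusted to 2.5×10^5/mL and plated at 40 μl per well in 384-well plates. Compounds were added, with SM164 (50 nM) where used, for a 1 h pretreatment at 37° C. TNFα (50 ng/mL) was then added, and cells were incubated 14 h at 37° C, 5% CO2. Viability was read as ATP luminescence with Cell Titer-Glo after 30 min at room temperature, with unstimulated DMSO wells set as 100%. EC50 values were calculated in Prism Graphpad.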

Assay [3] relates to L929 cells. Put plainly: Inhibition of TNF-induced programmed necrosis of L929 cells (Cell Titer-Glo viability). The class given is cell-based, mouse. The settings on record: Mus musculus, L929, L929 cells. A digest of the protocol:
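Mouse L929 fibroblasts were diluted to 6.25×10^4/ml, plated at 40 μl per well in 384-well plates, and incubated 12 hours at 37° C., 5% CO2. Compounds were added, with SM164 (500 nM) for the combination arm, and pretreated 1 h before TNFα (500 ng/mL). After 14 h, viability was read by Cell Titer-Glo luminescence against unstimulated DMSO controls, and EC50 values were fitted in Prism Graphpad.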

With `Cn1nnc(C(=O)NCc2ccc(-n3cnc4c(N)ncnc43)cc2)c1Cc1ccccc1` [QY-13-19, N-(4-(6-amino-9H-purin-9-yl)benzyl)-5-benzyl-1-methyl-1H-1,2,3-triazole-4-carboxamide], the “effect on body weight and spleen coefficient” value in assay [1] is given as “can inhibit the effect of the digestive system inflammation”. For the same compound, the EC50 in assay [2] (14 h, stimulated with TNFα + SM164, read-out: EC50 (μM) FADD−/− Jurkat cells (human) TNFα + SM164) amounted to 0.516 nM; in assay [2] (stimulated with TNFα alone, read-out: EC50 (μM) FADD−/− Jurkat cells (human) TNFα) it was 0.0557 nM; in assay [3] (stimulated with TNFα + SM164, read-out: EC50 (μM) L929 cells (mouse) TNFα + SM164), 0.00309 µM; in assay [3] (stimulated with TNFα alone, read-out: EC50 (μM) L929 cells (mouse) TNFα) it was 0.00146 µM. For the same compound, the “activity of inhibition of programmed necrosis compared with GSK2982772” value in assay [2] (human FADD-deficient Jurkat cells, TNFα alone or in combination with SM164) is “stronger activity”.
